The structures appear in SMILES notation. Values after ≈ are worked out from the molar mass of the structure shown.

Assay [1] relates to Saccharomyces cerevisiae. In words: Antibacterial activity against Saccharomyces cerevisiae. Type of assay: functional.
The test system of assay [2] is Saccharomyces cerevisiae. As to the kind of experiment: Bactericidal activity against Saccharomyces cerevisiae. Type of assay: functional.

Usually MIC stands for the lowest concentration that inhibits growth of the organism. High values mean weaker potency, low ones greater potency. The MBC is the lowest tested concentration that kills the bacteria rather than only halting them. The low end stands for greater bactericidal potency, the high end for weaker bactericidal potency. With `Oc1cc2cc(c1O)Oc1ccc(cc1)CCc1cccc(O)c1Oc1cccc(c1)CC2` [MARCHANTIN A], the minimal inhibitory concentration (MIC) against Saccharomyces cerevisiae [1] was found to be 0.98 µg/mL (≈ 2.22 µM). In addition, the minimal bactericidal concentration (MBC) in the assay with Saccharomyces cerevisiae [2] is 0.98 µg/mL (≈ 2.22 µM).
For `Oc1cccc(CCc2ccc(Oc3cc(CCc4cccc(O)c4)cc(O)c3O)cc2)c1` [PERROTETTIN F], the minimal inhibitory concentration (MIC) against Saccharomyces cerevisiae [1] came out at 0.98 µg/mL (≈ 2.21 µM). The MBC in the assay with Saccharomyces cerevisiae [2] was found to be 0.98 µg/mL (≈ 2.21 µM).

Source of the values: ChEMBL document CHEMBL5120750, “Bis-bibenzyls, Bibenzyls, and Terpenoids in 33 Genera of the Marchantiophyta (Liverworts): Structures, Synthesis, and Bioactivity” (2022).
